In the assay the target is T1, NLK (Homo sapiens, UniProt Q9UBE8).
T1 sequence (Q9UBE8 1-527): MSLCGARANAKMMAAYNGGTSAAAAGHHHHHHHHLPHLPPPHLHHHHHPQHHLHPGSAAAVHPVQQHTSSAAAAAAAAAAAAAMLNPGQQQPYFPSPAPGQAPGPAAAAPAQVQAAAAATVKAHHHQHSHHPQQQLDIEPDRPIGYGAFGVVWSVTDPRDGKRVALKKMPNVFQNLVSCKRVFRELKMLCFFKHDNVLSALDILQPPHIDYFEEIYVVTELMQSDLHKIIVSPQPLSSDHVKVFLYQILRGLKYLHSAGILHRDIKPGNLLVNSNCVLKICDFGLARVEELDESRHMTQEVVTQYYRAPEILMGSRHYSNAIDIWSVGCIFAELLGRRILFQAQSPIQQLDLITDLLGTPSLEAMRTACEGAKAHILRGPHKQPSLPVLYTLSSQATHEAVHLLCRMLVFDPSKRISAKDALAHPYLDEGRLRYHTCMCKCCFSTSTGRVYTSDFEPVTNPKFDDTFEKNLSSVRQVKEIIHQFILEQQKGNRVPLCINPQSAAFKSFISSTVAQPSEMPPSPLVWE
The experiment in a line: Kinase assay of NLK immunopurified from treated differentiating human progenitors. The assay is classed as cell-based. Also noted: 5000 cells per treatment were lysed and immunopurified NLK was subjected to in vitro kinase assay; endogenous in cells; host or cells: human cord blood CD34+ HSPCs transduced with shLuc / shRPS19 / shRPL11, differentiating in erythroid medium. The following applies: for reduction in kinase activity of NLK immuno-precipitated from treated cultures: RPS19-insufficient human progenitors. How it is done:
FIG. 7. SD208 increases erythroid expansion in human model of DBA through inhibition of NLK and not TGFβ. (a) Differentiating cord blood CD34+ progenitors were transduced with shRNA against luciferase or RPS19 and treated with inhibitors at working concentrations for TGFβ inhibition every three days. Cells were counted and CD235+ erythroid cells were assessed by flow cytometry after 15 days. (b) Prior to flow cytometry, 5000 cells per group were taken from differentiating cultures for NLK kinase assay. (c) CD34+ progenitors were transduced with shRNA against luciferase or RPS19 and non-targeting or siRNA against NLK. After sorting, samples were split into two groups and either treated with vehicle or SD208 every three days. After 15 days cells were counted and subject to flow cytometry to compare the expansion of maturing CD235+ erythroid (left panel) and CD11b+ myeloid cells (right panel). (d) Cord Blood CD34+ progenitors were transduced with shRNA against luciferase (left panel) or RPS19 (right panel) differentiated in erythroid media for 15 days alone, or in the presence of SB525334 or SD208 at 5 μM. Cells were counted and CD235+ erythroid (D—upper) and CD11b+ myeloid cell (D—lower) percentages were determined by flow cytometry. The number of erythroid or myeloid cells is expressed as a percentage of the number of that lineage with no cytokine or drug treatment.
FIG. 8. NLK inhibition increases expansion of erythroid progenitors from human and murine models of DBA. Human cord blood CD34+ progenitors were transduced with lentivirus co-expressing GFP with shRNA against luciferase (shLuc), RPS19 (shRPS19) or RPL11 (shRPL11). After 36 hours cells GFP+ cells were differentiated in erythroid media in the presence or absence of 5 μM SD208 for 15 days. Cells were counted and assessed for cell surface expression of CD235. (a) The percentage of CD235+ cells was multiplied by the cell count and values were compared as a percentage of untreated controls. (b) Normalizing values relative to untreated RPS19-insufficiency progenitors facilitates direct comparison of erythropoiesis between untreated and SD208-treated cultures. (c) Approximately 3000 cells were removed from differentiating treatments at day 6 and NLK activity was assessed. Values were normalized to reflect a fold induction relative to untreated controls. (d) Lin-Kit+ hematopoietic progenitors were obtained from three mouse embryos expressing tetracycline-inducible shRNA against RPS19 at day E14.5 or three untreated mice, and thee mature RPL11^+/+ or three mature RPL11^+/lox mice treated with tamoxifen for eight weeks. Cells were grown in the presence or absence of doxycycline and/or SD208 for eight days prior to counting and assessing for ter119 surface expression. Values were expressed as a percentage relative to untreated controls (e) and directly comparing the effect of SD208 on erythropoiesis in ribosomal-insufficiency by expressing values relative to untreated ribosome-insufficient cultures (f). At day 5 approximately 3000 cells were assayed for NLK kinase assay (g). CD34+ HSPCs were isolated from three healthy control and three DBA patient mononuclear bone marrow aspirates by magnetic bead sorting and differentiated in the presence or absence of SD208 for 14 days. After counting the total cell population, the ratio of CD235+ erythroblasts was determined by flow cytometry and number of CD235+ erythroblasts calculated. This was expressed as a percentage of the average number of erythroid cells present in untreated healthy controls. (h) The direct effect of SD208 on erythroid expansion in DBA patient samples was calculated following normalization of untreated DBA patient samples as 1-fold, (i) At day five, 3000 cells from each of the differentiating cultures was analyzed for NLK activity by kinase assay and are expressed as a fold induction relative to untreated healthy controls. […]

[1] abbreviates: RPS19-insufficient progenitors, 50 mM metformin, 5 days.

Structures are written as SMILES.

Consider `Cc1cccc(-c2nn3c(c2-c2ccnc4ccc(C(N)=O)cc24)CCC3)n1` [Galunisertib], for which the “reduction in kinase activity of NLK immuno-precipitated from treated cultures” value (shortened to “reduction in kinase activity”) came out at 61.2%.
Regarding `Fc1ccc(Cl)cc1-c1nc(Nc2ccncc2)c2nccnc2n1` [SD208], the “reduction in kinase activity” value was found to be 92.5%. Besides, the “NLK activity, NLK phosphorylation, fold of untreated controls” value (RPL11-insufficiency with SD208 5 μM, 3.0-fold without) is 1.2 fold. Besides, under “RPL11-insufficiency with SD208 5 μM, 4.6-fold without”, the “NLK activity, Myb phosphorylation, fold of untreated controls” value is recorded as 1.38 fold. The “NLK activity, raptor phosphorylation, fold of untreated controls” value (RPL11-insufficiency with SD208 5 μM, 7.3-fold without) was found to be 1.6 fold. Further, the “NLK activity, NLK phosphorylation, fold of untreated controls” value (RPS19-insufficiency with SD208 5 μM, 3.5-fold without) came out at 1.2 fold. In addition, the “NLK activity, Myb phosphorylation, fold of untreated controls” value (RPS19-insufficiency with SD208 5 μM, 5.2-fold without) stood at 1.5 fold. The “NLK activity, raptor phosphorylation, fold of untreated controls” value (RPS19-insufficiency with SD208 5 μM, 8.4-fold without) is given as 1.7 fold.
On to `CN(C)C(=N)N=C(N)N` [metformin], for which, under setting [1], the “reduction of phosphorylation of NLK” value is 48.5%, the “reduction of phosphorylation of c-Myb” value was 39.8% and the “reduction of phosphorylation of raptor” value is 40.2%.
Take `NC(=O)c1ccc(-c2nc(-c3ccc4c(c3)OCO4)c(-c3ccccn3)[nH]2)cc1` [SB431542]: the “reduction in kinase activity” value came out at 73.6%.

These data come from patent US12403132B2, “Methods of treating bone marrow failure syndromes and compositions for use in the same” (The Board of Trustees of the Leland Stanford Junior …, priority 2020, dated 2025).
